Reference: patent US11091428B2 (HAPLOGEN GMBH, priority 2016, dated 2021)
Read-outs that look alike come from different tables or passages of the source.

What was measured:
PLA2G16 = biological target: T1, PLA2G16 (Homo sapiens, UniProt P53816); experiment: Enzyme activity assay for PLA2G16 (Red/Green BODIPY PC-A2 fluorescence); assay type: biochemical; conditions: His-tagged PLA2G16, 4 min pre-incubation, 2 nM to 50 μM; read-out: IC50 values of the compounds determined in the enzyme activity assay for PLA2G16
T1 construct: Hexa-His (N); made in house; host or cells: E. coli BL21(DE3)
T1 sequence (P53816 1-162): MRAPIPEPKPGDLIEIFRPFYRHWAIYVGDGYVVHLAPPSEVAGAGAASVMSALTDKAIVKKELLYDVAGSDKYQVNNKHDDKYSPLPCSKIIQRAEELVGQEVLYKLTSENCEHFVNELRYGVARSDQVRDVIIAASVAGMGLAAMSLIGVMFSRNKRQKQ
Description: A cDNA for PLA2G16(NM_007069) was custom-synthesized by Genscript (Piscataway, USA) and inserted into a pET-based bacterial expression vector [Moffatt, B. A. and Studier, F. W. (1986) J. Mol. Biol. 189, 113-130; Rosenberg, A. H., Lade, B. N., Chui, D., Lin, S., Dunn, J. J., and Studier, F. W. (1987) Gene 56, 125-135], enabling the expression of N-terminally Hexa-His-tagged PLA2G16. E. coli BL21(DE3) (Agilent) were transformed with pET-His-PLA2G16according to the manufacturer's instructions and plated on Carbenicillin-containing agar plates (final concentration: 100 μg/mL). A single clone was in occulated in 100 mL LB medium supplemented with 100 μg/mL Carbenicillin and the in occulated culture was grown at 37° C. overnight in a rotary shaker. On the next day, the bacterial culture was diluted in LB medium supplemented with 100 μg/mL Carbenicillin (30 mL overnight culture in 800 mL total culture volume). Bacteria were grown at 37° C. until the OD600 reached 0.6. Gene expression was induced by addition of 1 mM isopropyl-β-D-thiogalactopyranosid (IPTG) for 2 h at 18° C. Subsequently, bacteria were harvested by centrifugation (15 min; 10,000×g; 4° C.) and frozen at −80° C. The bacterial pellet was resuspended in Buffer A (50 mM Tris/HCl pH 7.5, 500 mM NaCl, 5% glycerol, 5 mM β-Mercaptoethanol and 1 mM PMSF) and lysed by addition of 1 mg/mL lysozyme (Sigma Aldrich) and 100 μg/mL DNasel-(Roche). The sample was incubated at 30° C. for 30 min to allow lysis to occur. Then, the lysate was cleared by centrifugation (15,000×g, 15 min, 4° C.) and incubated with 1.5 mL Ni-NTA agarose suspension (Qiagen) for 60 min at 4° C. The Ni-NTA agarose was washed with 10 mL Buffer A. Bound protein was eluted by applying a manual gradient of Buffer A supplemented with increasing concentrations of imidazole (Sigma Aldrich; 25/50/75/100/250 mM). Purified fractions were analyzed by SDS-PAGE followed by Coomassie staining to assess the purity.
Activity of the protein was assessed as follows: Red/Green BODIPY® PC-A2 (Invitrogen, 1 mM in DMSO) was mixed with equal volumes of 1,2-Dioleoyl-sn-glycero-3-phosphocholine (DOPC; Sigma Aldrich, 10 mM in Ethanol) and 1,2-Dioleoyl-sn-glycero-3-phospho-rac-(1-glycerol) (DOPG; Sigma Aldrich, 10 mM in Ethanol) and 0.5 volumes of Cholesterol (CHOL; Sigma Aldrich, 10 mM in Ethanol) and vortexed for 5 s. The mixture (Red/Green BODIPY® PC-A2/DOPC/DOPG/CHOL) was diluted 1:91.4 in activity assay buffer (50 mM Tris/HCl pH 8.5, 100 mM NaCl) using a small-orifice pipette tip under constant vortexing. In the following, this preparation will be referred to as the “substrate solution”.
In order to evaluate their inhibitory potential, compounds were dissolved at 10 mM concentration in DMSO and directly spotted into assay plates (Corning, Cat. No. 3576) using acoustic liquid transfer (Labcyte Echo 525). Each compound was spotted at increasing concentrations, ranging from 2 nM to 50 μM (concentration in the final assay volume). 50 μl of PLA2G16 enzyme solution (diluted in activity buffer, supplemented with 5 mM L-Glutathione; Sigma Aldrich) was pre-incubated with compounds for 4 min., followed by addition of 50 μl of substrate solution. Fluorescence was recorded immediately after substrate addition for a total time of 10 min. using a SpectraMax M5 multimode reader (Excitation wavelength: 480 nm, emission wavelength: 530 nm). The relative increase of fluorescence over time is referred to as the enzyme activity. Half-maximal inhibitory concentrations (IC50) were derived by non-linear regression analysis using the drc package in R (R Development. Core Team, 2005).

[1] = tested on: picornaviruses (CVB1, HRV-A2, HRV-A23, EV-68); experiment: Anti-picornavirus cytopathic effect (CPE) reduction assay on HeLa H1 cells; assay type: cell-based; conditions: Enterovirus B, HeLa H1 cells, 48 h, category from averaging the EC50 values from four picornaviruses (CVB1, HRV-A2, HRV-A23, EV68), read-out: EC50 values of the compounds determined in the anti-picornavirus assay
Procedure: The antiviral activity of selected compounds was tested using a cytopathic effect (CPE) reduction assay on HeLa H1 cells (ATCC CRL-1958). Briefly, cells were seeded in 96-well dishes (2×10^4 cells/well) in DMEM medium (Life technologies) supplemented with 10% FBS and PenStrep solution (100 U/mL Penicillin and 100 μg/mL streptomycin) and incubated at 37° C., 5% CO2 ovemight. The next day, cells were pre-treated with serial dilutions of the compound in DMEM medium supplemented with 2% FBS and PenStrep for 2 h at 37° C., 5% CO2. Next, cells were infected with virus (CVB1, HRV-A2, HRV-A23, EV-68) at an multiplicity of infection (MOI) which results in a complete virus-induced CPE within 2 days in control wells (infected and vehicle-treated). After 48 h, supematants were aspirated and 50 μl/well of CellTiterBlue reagent (Promega) diluted 1:5 in DMEM+2% FBS, was added to the cells. Plates were returned to the incubator and allowed to develop for 1.5 h. After that, plates were equilibrated to RT and subsequently, fluorescence was recorded (Excitation wavelength: 560 nm; emission wavelength: 590 nm) using a SpectraMax M5 multimode plate reader. Viability of cells was calculated according to the formula: V=(RFUCpd−RFUVeh/(RFUM−RFUVeh), where RFUCpd refers to infected and compound-treated cells, RFUVeh to infected and vehicle-treated cells and RFUM to uninfected and vehicle treated cells. Half-maximal effective concentrations (EC50) were calculated by non-linear regression analysis using the drc package in R (R Development. Core Team, 2005). EC50 categories as presented in Table 2 were calculated by averaging the EC50 values from four picornaviruses (CVB1, HRV-A2, HRV-A23, EV68).

[2] = CVB1|EV68|HRVA2|HRVA23, HeLa H1, 48 h

SMILES | IC50 (PLA2G16) | EC50 ([1]; HeLa H1, 48 h) | EC50 [1, 2]
C[C@@H]1C[C@H]1NC(=O)C(=O)[C@H]1CCC(=O)N1Cc1ccccc1 [FP 271, 2-[(2R)-1-Benzyl-5-oxopyrrolidin-2-yl]-N-[(1R,2R)-2-methylcyclopropyl]-2-oxoacetamide] | < 1 µM | < 1 µM | 
CC(=O)NCCCCCCNC(=O)C(=O)C1CCC(=O)N1Cc1ccc(Cl)cc1 (stereo not shown) [FP 330, 2-{1-[(4-Chlorophenyl)methyl]-5-oxopyrrolidin-2-yl}-N-(6-acetamidohexyl)-2-oxoacetamide] | < 1 µM | 1 to 10 µM | 
CCC(C(=O)C(=O)NCc1cccc(Cl)c1)N(C=O)c1ccccc1OC (stereo not shown) [FP 12, N-[(3-Chlorophenyl)methyl]-3-[N-(2-methoxyphenyl)formamido]-2-oxopentanamide] | < 1 µM | 1 to 10 µM | 
CC(C)NC(=O)C(=O)C(C)N(C=O)Cc1ccccc1 (stereo not shown) [FP 57, 3-(N-Benzylformamido)-2-oxo-N-(propan-2-yl)butanamide] | < 1 µM | 1 to 10 µM | 
CC(C)(C#N)CNC(=O)C(=O)[C@H]1CCC(=O)N1Cc1ccccc1 [FP 263, 2-[(2R)-1-Benzyl-5-oxopyrrolidin-2-yl]-N-(2-cyano-2,2-dimethylethyl)-2-oxoacetamide] | < 1 µM | 1 to 10 µM | 
COc1ccccc1N(C=O)C(C)C(=O)C(=O)N[C@H](C)C(C)C (stereo partly drawn) [FP 107, 3-[N-(2-Methoxyphenyl)formamido]-N-[(2R)-3-methylbutan-2-yl]-2-oxobutanamide] | < 1 µM | 1 to 10 µM | 
COc1ccccc1N(C=O)C(C)C(=O)C(=O)NC(C)C (stereo not shown) [FP 28, 3-[N-(2-Methoxyphenyl)formamido]-2-oxo-N-(propan-2-yl)butanamide] | < 1 µM | 1 to 10 µM | 
O=C(NC1CC1)C(=O)C1CCC(=O)N1CCc1ccccc1 (stereo not shown) [FP 251, N-Cyclopropyl-2-oxo-2-[5-oxo-1-(2-phenylethyl)pyrrolidin-2-yl]acetamide] | < 1 µM | 1 to 10 µM | 
CC(C)NC(=O)C(=O)C(C)N(C=O)C1CCCCC1 (stereo not shown) [FP 36, 3-(N-Cyclohexylformamido)-2-oxo-N-(propan-2-yl)butanamide] | < 1 µM | 1 to 10 µM | 
Cc1csc(CN2C(=O)CCC2C(=O)C(=O)NCC2CCCC2)n1 (stereo not shown) | < 1 µM |  | < 1 µM
Cc1csc(CN2C(=O)CCC2C(=O)C(=O)NCC2CC2)n1 (stereo not shown) | < 1 µM |  | 1 to 10 µM
O=C(NC1CC1)C(=O)C1CCC(=O)N1Cc1ccc(Cl)cc1F (stereo not shown) [FP 234, 2-{1-[(4-Chloro-2-fluorophenyl)methyl]-5-oxopyrrolidin-2-yl}-N-cyclopropyl-2-oxoacetamide] | < 1 µM | 1 to 10 µM | 
O=C(NCC1CCOCC1)C(=O)C1CCC(=O)N1Cc1ccc(Cl)cc1 (stereo not shown) [FP 235, 2-{1-[(4-Chlorophenyl)methyl]-5-oxopyrrolidin-2-yl}-N-[(oxan-4-yl)methyl]-2-oxoacetamide] | < 1 µM | 1 to 10 µM | 
COc1ccccc1N(C=O)C(C)C(=O)C(=O)NCc1cccc(Cl)c1 (stereo not shown) [FP 1, N-[(3-Chlorophenyl)methyl]-3-[N-(2-methoxyphenyl)formamido]-2-oxobutanamide] | < 1 µM | < 1 µM | 
CC(C(=O)C(=O)NCc1cccc(Cl)c1)N(C=O)CC1CCCCC1 (stereo not shown) [FP 18, N-[(3-Chlorophenyl)methyl]-3-[N-(cyclohexylmethyl)formamido]-2-oxobutanamide] | < 1 µM | < 1 µM | 
CC(C(=O)C(=O)NCCOc1ccccc1)N(C=O)C1CCCCC1 (stereo not shown) [FP 109, 3-(N-Cyclohexylformamido)-2-oxo-N-(2-phenoxyethyl)butanamide] | < 1 µM | < 1 µM | 
CC(NS(=O)(=O)Cc1ccccc1)C(=O)C(=O)NCC1CC1 (stereo not shown) [FP 188, N-(Cyclopropylmethyl)-2-oxo-3-(phenylmethanesulfonamido)butanamide] | < 1 µM | > 10 µM | 
CC(C)CNC(=O)C(=O)C(C)OC1CCCCC1 (stereo not shown) [FP 124, 3-(Cyclohexyloxy)-N-(2-methylpropyl)-2-oxobutanamide] | < 1 µM | < 1 µM | 
Cc1ccc(S(=O)(=O)NC(C)C(=O)C(=O)NCC2CC2)cc1 (stereo not shown) [FP 189, N-(Cyclopropylmethyl)-3-(4-methylbenzenesulfonamido)-2-oxobutanamide] | < 1 µM | 1 to 10 µM | 
COCCC(C(=O)C(=O)NCC1CC1)N(C=O)Cc1ccccc1 (stereo not shown) [FP 70, 3-(N-Benzylformamido)-MN-(cyclopropylmethyl)-5-methoxy-2-oxopentanamide] | < 1 µM | 1 to 10 µM | 
O=CN(Cc1ccccc1)[C@@H](Cc1cn(C(c2ccccc2)(c2ccccc2)c2ccccc2)cn1)C(=O)C(=O)NCC1CCCCC1 [FP 116, (3S)-3-(N-Benzylformamido)-N-(cyclohexylmethyl)-2-oxo-4-[1-(triphenylmethyl)-1H-imidazol-4-yl]butanamide] | < 1 µM | < 1 µM | 
CCC(NC(=O)c1ccncc1)C(=O)C(=O)NCC1CCCCC1 (stereo not shown) [FP 208, N-(Cyclohexylmethyl)-2-oxo-3-[(pyridin-4-yl)formamido]pentanamide] | < 1 µM | > 10 µM | 
O=C(NCC1CC1)C(=O)C1CCC(=O)N1CC1CCCCC1 (stereo not shown) [FP 202, 2-[1-(Cyclohexylmethyl)-5-oxopyrrolidin-2-yl]-N-(cyclopropylmethyl)-2-oxoacetamide] | < 1 µM | < 1 µM | 
